Laboratory results published in patent US10815275B2, “Antimicrobial peptoids with improved selectivity and use thereof” (priority 2018, dated 2020).
In brackets after ≈: the same amount, converted by molar mass. Non-standard residues stand in square brackets, D forms with d. Residues, ends and D or L forms follow the SMILES beside them. No end group written: not given here. Nspe = C[C@H](NCC(=O)O)c1ccccc1; Nphe = O=C(O)CNCc1ccccc1; Nlys = NCCCCNCC(=O)O

Experiments:
[1] = test system: E. coli strain ATCC25922; type: cell-based; conditions: for MBC E. coli: ATCC25922; for MIC E. coli: ATCC25922, 18 h
Method: (§1) In order to measure antimicrobial activity of the peptoids, Gram-positive S. aureus strain KCTC1621, or Gram-negative E. coli strain ATCC25922 was treated with the peptoids prepared in Preparation Example 1, and minimum inhibitory concentrations were measured. Peptoid NOS. 1 and 2 are already known peptoids and were used for the purpose of making a comparison with novel peptoids in terms of antimicrobial activity.
(§2) Specifically, S. aureus strain KCTC1621 or E. coli strain ATCC25922 was inoculated into Mueller Hinton Broth (MHB2) liquid medium on which cations were adjusted, cultured at a temperature of 37° C. for 18 hours, and then subcultured for 4 hours. Thereafter, the strains were diluted with MHB2 liquid medium containing 0.2% bovine serum albumin and 0.01% acetic acid so that each bacterial number was 2×10^5 colony-forming units (CFU) per 1 mL, and dispensed into 96-well microtiter plates at 100 μL each. A peptoid stock which is 40-fold more concentrated than a concentration to be tested was added to each well at 2.5 μL or lower so that the peptoid stock was 2-fold serially diluted using sterile water. Thereafter, the plates were incubated at a temperature of 37° C. for 18 hours.
(§3) Thereafter, absorbance was measured at a wavelength of 600 nm using a microplate reader (Bio-Rad). The lowest peptoid concentration that completely suppresses growth of microorganisms was measured by a minimum inhibitory concentration (MIC) and a minimum bactericidal concentration (MBC), and the measurement results are shown in Table 5 below. Each of the MIC values was calculated as an average value of numerical values obtained through three independent experiments.

[2] = test system: S. aureus strain KCTC1621; type: cell-based; conditions: for MBC S. aureus: KCTC1621; for MIC S. aureus: KCTC1621, 18 h
Method: as §1, §2, §3

[3] = test system: red blood cells; test: Hemolytic activity on red blood cells; type: cell-based, mouse
Procedure, shortened: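 Washed mouse red blood cells (10% v/v in PBS, pH 7.4) incubated with peptoids for 1 h at 37 °C; released haemoglobin read at 540 nm. % hemolysis normalised to 0.1% Triton X-100 (100%) and PBS blank; HD10, HD50 derived, Hmax taken at 200 μM top concentration.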

[4] = test system: P. aeruginosa (198B MDR); test: MIC in multidrug-resistant bacteria panel, modified microdilution; type: cell-based; conditions: overnight, 37° C.
Method: (§4) Minimum inhibitory concentrations of the prepared peptoids for multidrug-resistant bacteria were measured using a modified microdilution method in Difco Mueller Hinton medium, and tests were done on a panel of bacterial pathogens which have resistance and tolerance against common antibiotics.
(§5) Briefly, a peptoid concentrate, which is 10-fold more concentrated than a final concentration, was serially diluted with a medium containing 0.2% bovine serum albumin and 0.01% acetic acid. 10 μL of the 10-fold concentrated peptoid concentrate and 90 μL of Muller Hinton medium were added to each well of a 96-well polypropylene microtitre plate. Bacteria were added to the plate so that a final concentration thereof was 2×10^5 CFU/mL, and then incubated overnight at a temperature of 37° C. The minimum inhibitory concentration was defined as a concentration at which no bacterial growth is observed.

[5] = test system: P. aeruginosa (PA01); test: as above; type: cell-based; conditions: overnight, 37° C.
Method: as §4, §5

[6] = test system: S. epidermidis (ET-024 MRSA); test: as above; type: cell-based; conditions: overnight, 37° C.
Method: as §4, §5

[7] = Metabolic stability in human liver S9 fraction, HPLC; type: in vitro ADME; conditions: human; for remaining at 24 h, 11.5 μM: s9, pH 7.4
Method: In order to identify metabolic stability of the peptoids synthesized in Preparation Example 1, such peptoids were subjected to enzymatic reaction using S9 fraction which is a mixture of human liver tissue-extracted metabolic enzymes. Thereafter, for the reaction products, metabolites were quantitated using HPLC.
Specifically, Peptoid NOS. 1 and 4, and Pexiganan as a peptide control (40 μL each, 100 μM) were treated with […], 3.3 mM MgCl2, and 1.3 mM NADPH buffer (306 μL, pH=7.4), to prepare respective samples. The respective samples were treated with S9 fraction (2 μL, 0.1 mg/mL) and then incubated at a temperature of 37° C. When 0, 1, 4, and 24 hours had elapsed after treatment with the S9 fraction, 40 μL of each sample was taken out, and acetonitrile containing the same amount of 0.1% trifluoroacetic acid was used to stop activity of enzymes contained in the S9 fraction. Thereafter, proteins precipitated with acetonitrile were centrifuged at a condition of 1,000×g for 10 minutes at a temperature of 4° C. Then, supernatant was analyzed by HPLC to identify an amount of the remaining peptoid which had not been degraded by the enzymes in the S9 fraction.

[8] = test system: E. coli; test: Selectivity analysis, HD10 divided by MIC for E. coli; conditions: HD10 of Table 6 divided by MIC for E. coli ATCC25922
Method: In order to identify changes in selectivity depending on alteration of degree of folding in helical structure of peptoids, selectivity of each peptoid was calculated using the resultant values measured in the Experimental Examples 1 and 2. The selectivity was obtained by dividing the HD10 value by the minimum inhibitory concentration for E. coli (Table 8).

[9] = test system: B. subtilis; type: cell-based; conditions: 18 h
Method: In order to measure antimicrobial activity of the peptoids, Gram-positive B. subtilis or Gram-negative E. coli strain DH5α was treated with Peptoid NOS. 1, 18 to 23, and the peptide Pexiganan, and minimum inhibitory concentrations were measured. Peptoid NOS. 1 and 2, and the peptide Pexiganan are already known antimicrobial peptoids and peptides, and were used for the purpose of making a comparison with novel peptoids in terms of antimicrobial activity.
Specifically, B. subtilis or E. coli DHS a was inoculated into LB liquid medium, and cultured at a temperature of 37° C. for 18 hours. Thereafter, the bacteria were diluted with LB medium so that each bacterial number was 2×10^5 colony-forming units (CFU) per 1 mL, and dispensed into 96-well microtiter plates at 100 μL each. The peptoid, which is 2-fold serially diluted using sterile water, was added to each well at 100 μL each. The plates were incubated at a temperature of 37° C. for 18 hours.
Thereafter, absorbance was measured at a wavelength of 600 nm using a microplate reader (Bio-Rad). The lowest peptoid concentration that completely suppresses growth of microorganisms was measured by a minimum inhibitory concentration (MIC), and the measurement results are shown in Table 12 below. Each of the minimum inhibitory concentration values was calculated as an average value of numerical values obtained through three independent experiments.

[10] = test system: MRCS cell line; test: in vitro; type: cell-based; conditions: concentration indicating 50% survival, 24 h, MTS; read-out: LC50 (the source's name)
Method: In order to determine whether the peptoids were cytotoxic against human cell lines, […] cell line (Korean Cell Line Bank) which is a human lung cell line was cultured in a DMEM (Dulbecco's modified Eagle's medium) culture solution containing 10% (v/v) fetal bovine serum (FBS) at 5% CO2 and a temperature of 37° C. 100 μL of DMEM medium was dispensed into each well of a 96-well microtiter plate so that the number of cells was 1.3×10^4, and then incubated overnight at a temperature of 37° C. in a 5% CO2 incubator. In this case, a DMEM medium was used as a negative control. Thereafter, the peptoid which is 2-fold serially diluted using sterile water was added to each well, and then incubated for 24 hours.
After incubation, 20 μL of an MTS solution [3-(4,5-dimethylthiazol-2-yl)-5-(3-carboxymethoxyphenyl)-2-(4-sulfophenyl)-2H-tetrazolium, inner salt; MTS] was added thereto and incubated at a temperature of 37° C. for 4 hours. Thereafter, % survival was calculated by measuring absorbance at a wavelength of 490 nm using an ELISA reader. The % survival was calculated as a percentage obtained by dividing the absorbance value for a well-treated with the peptoid by the absorbance value for a well containing control cells which had not been treated with the peptoid.

[11] = test system: E. coli (63103 ESBL); test: MIC in multidrug-resistant bacteria panel, modified microdilution; type: cell-based; conditions: overnight, 37° C.
Method: as §4, §5

[12] = test system: S. aureus (ATCC25923); test: as above; type: cell-based; conditions: overnight, 37° C.
Method: as §4, §5

Row | Molecule | MBC E. coli [1] [µM] | MIC E. coli [1] [µM] | MBC S. aureus [2] [µM] | MIC S. aureus [2] [µM] | HD10 [3] | HD50 [3] | minimum inhibitory concentration P. aeruginosa (198B MDR) [4] | minimum inhibitory concentration P. aeruginosa (PA01) [5] | minimum inhibitory concentration S. epidermidis (ET-024 MRSA) [6] | remaining amount after S9 fraction treatment ([7]; s9, 24 h) [%] | remaining at 24 h, 11.5 μM [7] [%] | Selectivity [HD10/MIC (E. coli)] [8] | MIC B. subtilis [9] [µM] | CC50 [10] [µM] | minimum inhibitory concentration E. coli (63103 ESBL) [11] | minimum inhibitory concentration S. aureus (ATCC25923) [12]
1 | C[C@@H](c1ccccc1)N(CC(=O)N(CCCCN)CC(=O)N(CC(=O)N(CC(=O)N(CCCCN)CC(=O)N(CC(=O)N(CC(=O)N(CCCCN)CC(=O)N(CC(=O)N(CC(N)=O)Cc1ccccc1)Cc1ccccc1)Cc1ccccc1)Cc1ccccc1)Cc1ccccc1)Cc1ccccc1)C(=O)CN(Cc1ccccc1)C(=O)CNCCCCN [compound 4] (H-[Nlys][Nphe][Nspe][Nlys][Nphe][Nphe][Nlys][Nphe][Nphe][Nlys][Nphe][Nphe]-NH2) | 25 (≈ 43 µg/mL) | 12.5 (≈ 21.5 µg/mL) | 3.1 (≈ 5.34 µg/mL) | 3.1 (≈ 5.34 µg/mL) | 89.6 | > 200 | 6.3 | 6.3 | <0.8 to 0.8 | ≥ 60 | 74 | 7.1 | – | – | – | –
2 | GIGKFLKKAKKFGKAFVKILKK-NH2 [Pexiganan, reference compound] | – | – | – | – | 113.4 | > 200 | – | – | – | – | < 1 | – | 0.4 | 21.2 | – | –
3 | C[C@@H](c1ccccc1)N(CC(N)=O)C(=O)CN(Cc1ccccc1)C(=O)CN(CCCCN)C(=O)CN(Cc1ccccc1)C(=O)CN(Cc1ccccc1)C(=O)CN(CCCCN)C(=O)CN(Cc1ccccc1)C(=O)CN(Cc1ccccc1)C(=O)CN(CCCCN)C(=O)CN(C(=O)CN(C(=O)CNCCCCN)[C@@H](C)c1ccccc1)[C@@H](C)c1ccccc1 [compound 13] | 25 (≈ 43.7 µg/mL) | 25 (≈ 43.7 µg/mL) | 6.3 (≈ 11 µg/mL) | 3.1 (≈ 5.42 µg/mL) | 81.7 | > 200 | 6.3 | 6.3 | <0.8 to 0.8 | – | – | 3.3 | – | – | 6.3 | 3.1
4 | C[C@@H](c1ccccc1)N(CC(=O)N(CCCCN)CC(=O)N(CC(=O)N(CC(=O)N(CCCCN)CC(=O)N(CC(=O)N(CC(N)=O)Cc1ccccc1)Cc1ccccc1)[C@@H](C)c1ccccc1)[C@@H](C)c1ccccc1)C(=O)CN(Cc1ccccc1)C(=O)CN(CCCCN)C(=O)CN(Cc1ccccc1)C(=O)CN(Cc1ccccc1)C(=O)CNCCCCN [compound 15] (H-[Nlys][Nphe][Nphe][Nlys][Nphe][Nspe][Nlys][Nspe][Nspe][Nlys][Nphe][Nphe]-NH2) | 25 (≈ 43.7 µg/mL) | 12.5 (≈ 21.9 µg/mL) | 3.1 (≈ 5.42 µg/mL) | 3.1 (≈ 5.42 µg/mL) | 26.8 | 155.8 | 6.3 | – | <0.8 to 0.8 | – | – | 2.1 | – | – | 6.3 | 3.1
